From patent US12173018B2, “Penicillin-binding protein inhibitors” (priority 2018, dated 2024)
pEC50: −log10 of the molar value. ≈ marks a conversion by molar mass, not a printed value. Read-outs that look alike come from different tables or passages of the source.

Experiments:
[1] = biological target: E. coli PBP2 (Escherichia coli (strain K12), UniProt P0AD65); experiment: E. coli PBP2 Bocillin-FL fluorescence polarization competition binding assay; conditions: fluorescence polarization competition binding with Bocillin-FL; read-out: E. coli K12 PBP2 Potency (EC50)
Description: To determine the ability of boronic acid-based test PBP inhibitors to bind Penicillin Binding Proteins (PBPs), Bocillin-FL (fluorescently-labeled penicillin V; ThermoFisher Scientific) was used in a fluorescence polarization (FP) competition binding assay to assess inhibitor binding to PBP2, PBP3 or PBP4 from Escherichia coli. PBPs were cloned and purified as described previously (King, D. T, et al., ACS Infectious Diseases 2015, 1, 175-184). To establish assay conditions for competition binding, an enzyme titration/saturation binding experiment was initially performed. Bocillin-FL was prepared at 0.2 μM in a buffer comprised of 50 mM Hepes (pH 8.0), 300 mM NaCl and 5% (v/v) glycerol. Saturation binding was performed by mixing 40 μl of PBP solutions ranging in concentrations from 0-12 μM with 40 μl of the 0.2 μM Bocillin-FL solution, in individual wells of a black 384-well microplate. FP was measured immediately upon mixing (Excitation, 490 nm; Emission, 520 nm; g-factor, 0.96), using a Cytation3 (BioTek) microplate reader and measured continuously for up to 120 minutes. […] For all PBPs the FP signal approached saturation with 1.5 μM PBP (final concentration). […] Assays (80 μl final volume) were performed with PBPs at a final concentration of 1.5 μM, Bocillin-FL at 0.1 μM and beta-lactam concentrations that ranged from 0-1000 μM. […] Bocillin-FL was added and the FP immediately measured for 60 minutes (90 minutes for PBP2). The beta-lactam potency was reported as the concentration of beta-lactam required to reduce binding of Bocillin-FL by […] (EC50). […] Binding assays for boronic acid PBP inhibitors were performed in an identical fashion.

[2] = biological target: E. coli PBP1b (Escherichia coli (strain K12), UniProt P02919); experiment: Radioligand competition binding assay with 14C-labeled boronic acid probe, PBP1b
[3] = biological target: E. coli PBP3 (Escherichia coli (strain K12), UniProt P0AD68); experiment: E. coli PBP3 Bocillin-FL fluorescence polarization competition binding assay
Method in brief: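 Purified E. coli PBP (1.5 μM final) competed with inhibitor (0-1000 μM) for Bocillin-FL (0.1 μM final) in 50 mM Hepes pH 8.0, 300 mM NaCl, 5% glycerol. Fluorescence polarization (ex 490/em 520 nm) was read continuously for 60 min after Bocillin-FL addition. EC50 was the concentration that reduced Bocillin-FL binding by 50%.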

[4] = tested on: engineered strain of Escherichia coli harboring CTX-M15; experiment: microbe, parasite or virus in culture; assay type: cell-based; conditions: Escherichia coli, read-out: Microbiological Activity (MIC in mg/L), E. coli DH5α/pLBII-CTX-M15, engineered strain producing CTX-M15
[5] = tested on: N. gonorrhoeae ATCC 49226; experiment: Liquid broth MIC, N. gonorrhoeae ATCC 49226; assay type: cell-based; conditions: Neisseria gonorrhoeae, ATCC49226; N. gonorrhoeae ATCC 49226, liquid broth; read-out: Minimum Inhibitory Concentration, N. gonorrhoeae ATCC 49226
Method in brief: (§1)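 Broth microdilution in wild-type strains: colonies from GC agar with 1% Kellogg's supplement suspended in GC broth, inoculated at 5×10^5 CFU/mL into 2-fold compound dilutions. Plates incubated 40-42 hours at 36° C., 5% CO2; MIC read visually as lowest concentration with no growth.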

[6] = tested on: N. gonorrhoeae WHO F; experiment: Liquid broth MIC, N. gonorrhoeae WHO F; assay type: cell-based; conditions: Neisseria gonorrhoeae; N. gonorrhoeae WHO F, liquid broth; read-out: Minimum Inhibitory Concentration, N. gonorrhoeae WHO F
Method in brief: as §1

[7] = tested on: N. gonorrhoeae FA19; experiment: Liquid broth MIC, N. gonorrhoeae FA19; assay type: cell-based; conditions: Neisseria gonorrhoeae; N. gonorrhoeae FA19, liquid broth; read-out: Minimum Inhibitory Concentration, N. gonorrhoeae FA19
Method in brief: as §1

[8] = tested on: N. gonorrhoeae FA1090; experiment: Liquid broth MIC, N. gonorrhoeae FA1090; assay type: cell-based; conditions: Neisseria gonorrhoeae; N. gonorrhoeae FA1090, liquid broth; read-out: Minimum Inhibitory Concentration, N. gonorrhoeae FA1090
Method in brief: as §1

[9] = tested on: K. pneumoniae 848844; experiment: microbe, parasite or virus in culture; assay type: cell-based, Klebsiella pneumoniae; conditions: Klebsiella pneumoniae; K. pneumoniae 848844 producing SHV-11 and KPC-2; read-out: MIC K. pneumoniae 848844
Method in brief: (§2)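 Broth microdilution MICs followed CLSI methods in cation-supplemented Mueller-Hinton broth, with 2-fold serial compound dilutions. Log-phase cultures grown 3–5 h were added to a starting inoculum of 5×10^5 CFU/mL and incubated 16–20 h at 37 °C. The MIC was read visually as the lowest concentration with no growth.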

[10] = tested on: E. coli AG100; experiment: Broth microdilution MIC, E. coli AG100 (wild-type parent); assay type: cell-based; conditions: Escherichia coli; wild-type parent E. coli AG100, broth microdilution; read-out: MIC E. coli AG100
Method in brief: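 Starting inoculum of 5×10^5 CFU/mL, from colonies grown 3-5 h in Mueller-Hinton broth with divalent cations, added to two-fold compound dilution series.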

[11] = tested on: E. coli ATCC 25922; experiment: Broth microdilution MIC, E. coli ATCC 25922; assay type: cell-based; conditions: Escherichia coli, ATCC25922; E. coli ATCC 25922, broth microdilution; read-out: MIC E. coli 25922
Method in brief: as §2

[12] = tested on: E. coli 901C; experiment: microbe, parasite or virus in culture; assay type: cell-based; conditions: Escherichia coli; hyper-permeable E. coli 901C, broth microdilution; read-out: MIC E. coli 901C
Method in brief: as §2

[13] = tested on: E. coli D22; experiment: microbe, parasite or virus in culture; assay type: cell-based; conditions: Escherichia coli; hyper-permeable E. coli D22, broth microdilution; read-out: MIC E. coli D22
Method in brief: as §2

[14] = tested on: E. coli AG100A; experiment: microbe, parasite or virus in culture; assay type: cell-based; conditions: Escherichia coli, read-out: MIC E. coli AG100A
Method in brief: as §2

[15] = tested on: K. pneumoniae UMM; experiment: microbe, parasite or virus in culture; assay type: cell-based; conditions: Klebsiella pneumoniae; K. pneumoniae UMM producing SHV-5 and KPC-2; read-out: MIC K. pneumoniae UMM
Method in brief: as §2

[16] = tested on: K. pneumoniae SI-117; experiment: microbe, parasite or virus in culture; assay type: cell-based; conditions: Klebsiella pneumoniae, SI117, read-out: MIC K. pneumoniae SI-117
Method in brief: as §2

[17] = tested on: P. aeruginosa PAO1; experiment: Broth microdilution MIC, P. aeruginosa PAO1; assay type: cell-based; conditions: Pseudomonas aeruginosa; P. aeruginosa PAO1, broth microdilution; read-out: MIC P. aeruginosa PAO1
Protocol: (§3) To determine the ability of test compounds to potentiate the inhibition of the growth of bacterial strains, classic cell based broth microdilution minimum inhibitory concentration (MIC) assays were employed. MIC assays are performed according to CLSI methods except where otherwise noted (CLSI, 2011 and CLSI, 2009). The reference type strain E. coli ATCC 25922, the wild-type parent strain E. coli AG100, the hyper-permeable E. coli 901C and E. coli D22 and the E. coli AG100A strain lacking the acrAB efflux pump encoding genes were used to determine the ability of the PBP inhibitors to penetrate the outer membrane of gram-negative bacteria and inhibit bacterial growth. […] The P. aeruginosa PAO1, P. aeruginosa ATCC 27853 and A. baumannii ATCC 19606, along with the hyper-permeable P. aeruginosa ATCC 35151 and an engineered efflux pump-compromised strain of P. aeruginosa (ΔmexAB-oprM) were used to determine the ability of PBP inhibitors to penetrate the outer membrane of P. aeruginosa and A. baumannii and assess antibacterial activity against these important gram-negative organisms.
(§4) Briefly, cryo-preserved bacterial cultures of challenge strains are streaked for isolation on appropriate agar medium, in this case Mueller Hinton II agar. Following incubation to allow growth of the colonies, plates are sealed with parafilm and stored refrigerated for up to two weeks. For preparation of assay inoculum and to ensure low variability, at least 5 colonies are picked from the agar plates with an inoculating loop and aseptically transferred to a culture tube containing 3 mL of Mueller-Hinton Broth (supplemented with divalent cations to required levels based on Manufacturers' certification). The broth culture is grown for 3-5 hours at 37° C. with shaking at 200 rpm. Meanwhile, 2-fold serial dilutions of test compounds are conducted in a 96 well plate with a final volume of 75 μL per well at 2-fold the final desired concentration. After the dilution plates are set up the growing cultures are then diluted in a cuvette containing MH II broth and the optical density is measured at 600 nm. The Inoculum is diluted such that 75 μL of this culture in Mueller-Hinton Broth results in a starting bacterial concentration of 5×10^5 CFU/mL when added to the dilution plates. The plates are incubated for 16-20 hours at 37° C. The MIC values are read visually as the lowest concentration well with no bacterial growth.

[18] = tested on: A. baumannii ATCC 19606; experiment: Broth microdilution MIC, A. baumannii ATCC 19606; assay type: cell-based; conditions: Acinetobacter baumannii, ATCC19606; A. baumannii ATCC 19606, broth microdilution; read-out: MIC A. baumannii ATCC 19606
Protocol: as §3, §4

[19] = tested on: P. aeruginosa ATCC 35151; experiment: microbe, parasite or virus in culture; assay type: cell-based; conditions: Pseudomonas aeruginosa, ATCC35151; hyper-permeable P. aeruginosa ATCC 35151; read-out: MIC P. aeruginosa ATCC 35151
Method in brief: as §2

[20] = tested on: P. aeruginosa (ΔmexAB-oprM); experiment: microbe, parasite or virus in culture; assay type: cell-based; conditions: Pseudomonas aeruginosa, read-out: MIC P. aeruginosa ΔmexAB-OprM
Method in brief: as §2

Sequence of E. coli PBP2 (P0AD65 whole entry): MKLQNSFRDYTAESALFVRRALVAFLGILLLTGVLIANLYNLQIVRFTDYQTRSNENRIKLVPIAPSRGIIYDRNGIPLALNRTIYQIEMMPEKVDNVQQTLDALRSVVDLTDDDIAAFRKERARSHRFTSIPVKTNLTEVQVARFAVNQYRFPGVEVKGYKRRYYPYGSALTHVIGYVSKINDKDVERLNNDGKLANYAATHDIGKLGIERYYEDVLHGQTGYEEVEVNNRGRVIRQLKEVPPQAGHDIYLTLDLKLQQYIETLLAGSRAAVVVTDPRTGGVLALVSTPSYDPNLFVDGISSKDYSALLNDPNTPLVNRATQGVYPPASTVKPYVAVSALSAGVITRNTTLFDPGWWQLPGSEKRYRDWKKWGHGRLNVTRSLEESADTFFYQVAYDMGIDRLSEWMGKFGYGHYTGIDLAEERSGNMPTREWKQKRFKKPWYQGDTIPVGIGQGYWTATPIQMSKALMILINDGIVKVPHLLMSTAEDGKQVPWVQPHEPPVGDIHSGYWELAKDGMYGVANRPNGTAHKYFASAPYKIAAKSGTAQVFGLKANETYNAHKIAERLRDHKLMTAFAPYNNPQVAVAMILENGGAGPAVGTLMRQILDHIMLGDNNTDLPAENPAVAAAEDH
Sequence of E. coli PBP3 (P0AD68 whole entry): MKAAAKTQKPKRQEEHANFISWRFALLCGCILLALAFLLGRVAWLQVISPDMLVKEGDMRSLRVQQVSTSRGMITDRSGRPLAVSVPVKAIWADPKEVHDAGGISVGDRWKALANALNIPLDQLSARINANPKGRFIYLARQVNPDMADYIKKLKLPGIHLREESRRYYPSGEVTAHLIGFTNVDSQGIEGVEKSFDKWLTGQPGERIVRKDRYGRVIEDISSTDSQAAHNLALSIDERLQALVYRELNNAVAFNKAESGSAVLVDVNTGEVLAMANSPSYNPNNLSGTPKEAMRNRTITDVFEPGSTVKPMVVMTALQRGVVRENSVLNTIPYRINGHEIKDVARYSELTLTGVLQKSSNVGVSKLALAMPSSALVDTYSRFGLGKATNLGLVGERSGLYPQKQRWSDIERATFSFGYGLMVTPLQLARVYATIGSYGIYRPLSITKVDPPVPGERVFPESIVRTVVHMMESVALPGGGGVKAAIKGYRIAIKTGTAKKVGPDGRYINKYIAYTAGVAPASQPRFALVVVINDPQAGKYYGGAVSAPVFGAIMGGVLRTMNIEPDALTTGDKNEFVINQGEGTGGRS
Sequence of E. coli PBP1b (P02919 whole entry): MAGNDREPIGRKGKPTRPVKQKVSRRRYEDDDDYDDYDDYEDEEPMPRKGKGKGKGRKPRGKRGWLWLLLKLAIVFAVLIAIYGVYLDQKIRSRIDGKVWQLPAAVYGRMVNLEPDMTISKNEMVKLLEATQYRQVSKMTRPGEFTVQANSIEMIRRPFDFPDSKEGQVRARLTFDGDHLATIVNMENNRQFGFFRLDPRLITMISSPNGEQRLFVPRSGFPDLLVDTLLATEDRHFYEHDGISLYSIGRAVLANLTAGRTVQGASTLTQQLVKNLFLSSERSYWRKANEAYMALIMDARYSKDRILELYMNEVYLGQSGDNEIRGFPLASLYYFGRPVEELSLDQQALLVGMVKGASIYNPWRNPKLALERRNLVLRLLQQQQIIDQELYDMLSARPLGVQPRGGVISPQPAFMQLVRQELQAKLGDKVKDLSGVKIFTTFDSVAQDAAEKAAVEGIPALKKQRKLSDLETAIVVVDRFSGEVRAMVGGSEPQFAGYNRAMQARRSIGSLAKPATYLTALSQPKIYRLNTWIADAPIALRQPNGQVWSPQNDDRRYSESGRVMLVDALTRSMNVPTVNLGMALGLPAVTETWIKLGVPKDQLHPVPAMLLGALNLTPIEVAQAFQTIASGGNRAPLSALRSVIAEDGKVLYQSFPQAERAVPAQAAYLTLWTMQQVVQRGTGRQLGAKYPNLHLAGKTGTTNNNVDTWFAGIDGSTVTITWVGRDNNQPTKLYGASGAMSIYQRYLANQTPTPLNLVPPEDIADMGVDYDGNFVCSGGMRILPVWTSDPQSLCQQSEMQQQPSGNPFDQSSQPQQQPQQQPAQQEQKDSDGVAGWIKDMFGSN

Compound: CCN1CCN(C(=O)NC(C(=O)N[C@H]2Cc3cccc(C(=O)O)c3OB2O)c2ccc(F)cn2)C(=O)C1=O (stereo partly drawn) [Example 114, (3R)-3-(2-(4-ethyl-2,3-dioxopiperazine-1-carboxamido)-2-(5-fluoropyridin-2-yl)acetamido)-2-hydroxy-3,4-dihydro-2H-benzo[e][1,2]oxaborinine-8-carboxylic acid]
- pEC50 [1]: < 3.30
- pEC50 [2]: < 4.00
- pEC50 [3]: 3.30 to 4.52
- MIC [4]: 128 to 256 mg/L (≈ 243 to 486 µM)

Compound: CCCN1CCN(C(=O)NC(C(=O)N[C@H]2Cc3cccc(C(=O)O)c3OB2O)c2cnc(N)s2)C(=O)C1=O (stereo partly drawn) [Example 101, (3R)-3-(2-(2-aminothiazol-5-yl)-2-(2,3-dioxo-4-propylpiperazine-1-carboxamido)acetamido)-2-hydroxy-3,4-dihydro-2H-benzo[e][1,2]oxaborinine-8-carboxylic acid]
- MIC [5]: 1 to 2 µg/mL (≈ 1.84 to 3.67 µM)
- MIC [6]: < 0.125 µg/mL
- pEC50 [1]: < 3.30
- pEC50 [3]: 3.30 to 4.52
- MIC [7]: 1 to 2 µg/mL (≈ 1.84 to 3.67 µM)
- MIC [4]: 32 to 64 mg/L (≈ 58.8 to 118 µM)
- MIC [8]: < 0.125 µg/mL

Compound: C[C@@H](O)[C@@H](NC(=O)N1CCN(CCF)C(=O)C1=O)C(=O)N[C@H]1Cc2ccc(F)c(C(=O)O)c2OB1O [Example 126, (R)-7-fluoro-3-((2R,3R)-2-(4-(2-fluoroethyl)-2,3-dioxopiperazine-1-carboxamido)-3-hydroxybutanamido)-2-hydroxy-3,4-dihydro-2H-benzo[e][1,2]oxaborinine-8-carboxylic acid]
- pEC50 [1]: < 3.30
- pEC50 ([3]; fluorescence polarization competition binding with Bocillin-FL, read-out: E. coli K12 PBP3 Potency): < 3.30
- MIC [9]: 32 to 64 µg/mL
- MIC [10]: 8 to 16 µg/mL
- MIC [11]: 8 to 16 µg/mL
- MIC [12]: 2 to 4 µg/mL
- MIC [13]: 2 to 4 µg/mL
- MIC [14]: 8 to 16 µg/mL
- MIC [15]: 8 to 16 µg/mL
- MIC [16]: 8 to 16 µg/mL

Compound: CCN1CCN(C(=O)N[C@@H](C(=O)N[C@H]2Cc3ccc(F)c(C(=O)O)c3OB2O)c2ccsc2)C(=O)C1=O [Example 138, (R)-3-((R)-2-(4-ethyl-2,3-dioxopiperazine-1-carboxamido)-2-(thiophen-3-yl)acetamido)-7-fluoro-2-hydroxy-3,4-dihydro-2H-benzo[e][1,2]oxaborinine-8-carboxylic acid]
- MIC [17]: > 128 µg/mL
- pEC50 [1]: < 3.30
- MIC [18]: > 128 µg/mL
- pEC50 [3]: > 4.52
- MIC [19]: 0.5 to 1 µg/mL
- MIC [20]: 32 to 64 µg/mL

Compound: CCN1CCN(C(=O)NC(C(=O)N[C@H]2Cc3ccc(F)c(C(=O)O)c3OB2O)c2cccs2)C(=O)C1=O (stereo partly drawn) [Example 142, (3R)-3-(2-(4-ethyl-2,3-dioxopiperazine-1-carboxamido)-2-(thiophen-2-yl)acetamido)-7-fluoro-2-hydroxy-3,4-dihydro-2H-benzo[e][1,2]oxaborinine-8-carboxylic acid]
- MIC [5]: 0.25 to 0.5 µg/mL (≈ 0.47 to 0.939 µM)
- MIC [6]: < 0.125 µg/mL
- pEC50 [1]: < 3.30
- pEC50 [3]: 3.30 to 4.52
- MIC [7]: 1 to 2 µg/mL (≈ 1.88 to 3.76 µM)
- MIC [8]: < 0.125 µg/mL

Compound: CCN1CCN(C(=O)NC(C(=O)N[C@H]2Cc3cccc(C(=O)O)c3OB2O)c2ccc(OC)cn2)C(=O)C1=O (stereo partly drawn) [Example 81, (3R)-3-(2-(4-ethyl-2,3-dioxopiperazine-1-carboxamido)-2-(5-methoxypyridin-2-yl)acetamido)-2-hydroxy-3,4-dihydro-2H-benzo[e][1,2]oxaborinine-8-carboxylic acid]
- pEC50 [1]: 3.30 to 4.52
- pEC50 [3]: 3.30 to 4.52
- MIC [4]: 128 to 256 mg/L (≈ 237 to 475 µM)
